From patent US20240246942A1, “KINASE INHIBITORS FOR THE TREATMENT OF NEURODEGENERATIVE DISEASES” (priority 2020, published 2024)

Experiments:
Assay in all cases: biochemical
[1] = molecular target: T1, panel of 374 wild-type kinases (Homo sapiens, UniProt P45984); settings: JNK2, read-out: % Enzyme Activity (relative to DMSO controls)
T1 construct: purchased Reaction Biology Corporation

[2] = molecular target: T2, panel of 374 wild-type kinases (Homo sapiens, UniProt Q8N4C8); settings: read-out: % Enzyme Activity (relative to DMSO controls), MINK/MINK1
T2 construct: purchased Reaction Biology Corporation

[3] = molecular target: T3, panel of 374 wild-type kinases (Homo sapiens, UniProt Q15835); settings: read-out: % Enzyme Activity (relative to DMSO controls), GRK1
T3 construct: purchased Reaction Biology Corporation
T3 sequence (Q15835 1-563): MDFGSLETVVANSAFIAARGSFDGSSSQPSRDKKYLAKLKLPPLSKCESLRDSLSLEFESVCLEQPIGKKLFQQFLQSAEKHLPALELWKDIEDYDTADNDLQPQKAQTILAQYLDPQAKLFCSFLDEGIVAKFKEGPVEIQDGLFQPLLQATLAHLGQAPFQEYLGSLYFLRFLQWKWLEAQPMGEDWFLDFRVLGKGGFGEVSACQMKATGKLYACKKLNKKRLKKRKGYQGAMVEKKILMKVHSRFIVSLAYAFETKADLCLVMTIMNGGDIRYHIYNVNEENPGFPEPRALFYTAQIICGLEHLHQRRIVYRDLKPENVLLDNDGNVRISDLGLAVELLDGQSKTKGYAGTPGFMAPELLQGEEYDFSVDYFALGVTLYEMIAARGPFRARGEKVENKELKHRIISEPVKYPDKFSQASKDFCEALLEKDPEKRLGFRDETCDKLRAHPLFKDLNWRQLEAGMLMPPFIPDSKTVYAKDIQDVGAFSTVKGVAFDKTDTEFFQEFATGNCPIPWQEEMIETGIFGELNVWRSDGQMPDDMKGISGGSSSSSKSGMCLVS

[4] = molecular target: T4, panel of 374 wild-type kinases (Homo sapiens, UniProt Q13164); settings: read-out: % Enzyme Activity (relative to DMSO controls), ERK5/MAPK7
T4 construct: purchased Reaction Biology Corporation

[5] = molecular target: T5, panel of 374 wild-type kinases (Homo sapiens, UniProt Q8IVH8); settings: read-out: % Enzyme Activity (relative to DMSO controls), GLK/MAP4K3
T5 construct: purchased Reaction Biology Corporation
T5 sequence (Q8IVH8 1-894): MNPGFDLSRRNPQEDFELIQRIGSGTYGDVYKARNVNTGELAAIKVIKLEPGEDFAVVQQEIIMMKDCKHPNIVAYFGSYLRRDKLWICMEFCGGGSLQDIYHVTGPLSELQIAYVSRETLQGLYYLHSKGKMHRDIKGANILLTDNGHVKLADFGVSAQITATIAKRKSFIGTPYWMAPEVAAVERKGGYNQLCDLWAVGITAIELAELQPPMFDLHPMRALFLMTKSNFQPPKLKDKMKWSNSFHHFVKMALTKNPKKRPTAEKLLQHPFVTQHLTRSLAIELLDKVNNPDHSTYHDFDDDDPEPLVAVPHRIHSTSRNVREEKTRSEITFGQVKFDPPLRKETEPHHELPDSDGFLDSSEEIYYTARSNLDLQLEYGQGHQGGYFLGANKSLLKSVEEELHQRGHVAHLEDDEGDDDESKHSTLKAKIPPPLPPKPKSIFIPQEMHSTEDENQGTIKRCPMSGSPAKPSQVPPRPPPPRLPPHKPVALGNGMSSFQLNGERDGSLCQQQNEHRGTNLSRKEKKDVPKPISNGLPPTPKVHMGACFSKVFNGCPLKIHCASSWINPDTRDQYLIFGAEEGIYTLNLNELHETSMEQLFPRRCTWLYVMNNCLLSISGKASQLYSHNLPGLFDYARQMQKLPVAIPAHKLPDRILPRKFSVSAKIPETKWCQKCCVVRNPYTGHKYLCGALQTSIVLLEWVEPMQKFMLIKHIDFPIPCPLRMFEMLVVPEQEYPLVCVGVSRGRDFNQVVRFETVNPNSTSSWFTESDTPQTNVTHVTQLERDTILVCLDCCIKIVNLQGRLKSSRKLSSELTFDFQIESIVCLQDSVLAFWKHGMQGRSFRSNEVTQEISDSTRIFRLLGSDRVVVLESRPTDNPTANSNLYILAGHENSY

[6] = molecular target: T6, panel of 374 wild-type kinases (Homo sapiens, UniProt P32298); settings: read-out: % Enzyme Activity (relative to DMSO controls), GRK4
T6 construct: purchased Reaction Biology Corporation

[7] = molecular target: T7, panel of 374 wild-type kinases (Homo sapiens, UniProt Q9NR20); settings: read-out: % Enzyme Activity (relative to DMSO controls), DYRK4
T7 construct: purchased Reaction Biology Corporation
T7 sequence (Q9NR20 1-520): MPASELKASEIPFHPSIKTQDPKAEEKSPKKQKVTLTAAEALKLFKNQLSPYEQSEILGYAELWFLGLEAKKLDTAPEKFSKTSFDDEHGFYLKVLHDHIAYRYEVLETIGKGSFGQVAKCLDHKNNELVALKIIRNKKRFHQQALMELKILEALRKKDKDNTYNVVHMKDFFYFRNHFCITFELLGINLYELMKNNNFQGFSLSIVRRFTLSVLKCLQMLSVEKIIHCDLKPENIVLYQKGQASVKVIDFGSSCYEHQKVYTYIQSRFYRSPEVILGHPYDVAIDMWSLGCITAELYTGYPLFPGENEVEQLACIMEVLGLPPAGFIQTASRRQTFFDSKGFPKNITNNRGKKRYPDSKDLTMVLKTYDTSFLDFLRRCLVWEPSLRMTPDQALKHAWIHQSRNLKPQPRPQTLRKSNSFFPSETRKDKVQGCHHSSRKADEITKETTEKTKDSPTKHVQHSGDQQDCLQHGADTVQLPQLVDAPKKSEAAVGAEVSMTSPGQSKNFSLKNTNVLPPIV

T1 sequence (P45984 whole entry): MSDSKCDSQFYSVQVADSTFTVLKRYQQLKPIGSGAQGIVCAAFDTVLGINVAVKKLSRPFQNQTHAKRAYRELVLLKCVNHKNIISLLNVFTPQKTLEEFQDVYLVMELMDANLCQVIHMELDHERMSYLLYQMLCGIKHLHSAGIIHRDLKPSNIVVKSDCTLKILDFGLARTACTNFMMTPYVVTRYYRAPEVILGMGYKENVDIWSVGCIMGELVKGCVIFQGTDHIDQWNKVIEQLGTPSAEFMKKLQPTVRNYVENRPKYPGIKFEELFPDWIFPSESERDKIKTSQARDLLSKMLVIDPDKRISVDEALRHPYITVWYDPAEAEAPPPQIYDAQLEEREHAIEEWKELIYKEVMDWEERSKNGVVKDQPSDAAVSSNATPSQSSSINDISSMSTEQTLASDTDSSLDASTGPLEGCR
T2 sequence (Q8N4C8 whole entry): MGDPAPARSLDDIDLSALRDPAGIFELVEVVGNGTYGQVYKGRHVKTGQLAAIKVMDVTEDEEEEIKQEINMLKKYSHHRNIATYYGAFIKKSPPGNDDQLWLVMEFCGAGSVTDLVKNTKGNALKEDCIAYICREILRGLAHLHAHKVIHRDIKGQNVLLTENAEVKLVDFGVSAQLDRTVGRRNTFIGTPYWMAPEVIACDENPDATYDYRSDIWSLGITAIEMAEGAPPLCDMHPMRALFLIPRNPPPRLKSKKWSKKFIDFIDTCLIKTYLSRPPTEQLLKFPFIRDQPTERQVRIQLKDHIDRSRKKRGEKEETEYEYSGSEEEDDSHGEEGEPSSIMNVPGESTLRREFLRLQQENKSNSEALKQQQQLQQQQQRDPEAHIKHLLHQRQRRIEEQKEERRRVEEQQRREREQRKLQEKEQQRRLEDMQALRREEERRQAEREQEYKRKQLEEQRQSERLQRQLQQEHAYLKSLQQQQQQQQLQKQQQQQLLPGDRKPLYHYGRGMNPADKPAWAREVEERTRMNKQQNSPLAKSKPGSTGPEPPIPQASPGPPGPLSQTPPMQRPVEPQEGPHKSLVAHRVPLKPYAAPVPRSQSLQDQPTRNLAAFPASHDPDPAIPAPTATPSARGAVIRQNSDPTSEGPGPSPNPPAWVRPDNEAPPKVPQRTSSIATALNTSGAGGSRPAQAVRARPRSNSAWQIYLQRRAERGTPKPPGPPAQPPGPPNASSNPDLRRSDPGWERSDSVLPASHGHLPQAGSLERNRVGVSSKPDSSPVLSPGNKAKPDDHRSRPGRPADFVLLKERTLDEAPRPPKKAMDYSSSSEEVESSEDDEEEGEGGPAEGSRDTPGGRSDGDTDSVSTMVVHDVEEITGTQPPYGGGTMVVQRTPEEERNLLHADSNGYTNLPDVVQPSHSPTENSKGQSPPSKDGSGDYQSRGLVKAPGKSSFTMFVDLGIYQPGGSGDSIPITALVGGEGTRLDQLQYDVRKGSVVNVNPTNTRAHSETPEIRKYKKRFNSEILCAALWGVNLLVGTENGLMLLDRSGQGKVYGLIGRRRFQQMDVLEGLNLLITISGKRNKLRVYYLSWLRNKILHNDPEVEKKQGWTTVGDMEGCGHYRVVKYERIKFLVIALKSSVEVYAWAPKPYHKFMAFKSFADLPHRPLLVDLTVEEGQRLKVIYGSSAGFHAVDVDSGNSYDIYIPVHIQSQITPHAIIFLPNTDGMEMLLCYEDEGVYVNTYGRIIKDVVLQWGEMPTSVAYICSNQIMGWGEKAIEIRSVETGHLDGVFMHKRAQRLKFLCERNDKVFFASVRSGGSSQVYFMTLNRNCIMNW
T4 sequence (Q13164 whole entry): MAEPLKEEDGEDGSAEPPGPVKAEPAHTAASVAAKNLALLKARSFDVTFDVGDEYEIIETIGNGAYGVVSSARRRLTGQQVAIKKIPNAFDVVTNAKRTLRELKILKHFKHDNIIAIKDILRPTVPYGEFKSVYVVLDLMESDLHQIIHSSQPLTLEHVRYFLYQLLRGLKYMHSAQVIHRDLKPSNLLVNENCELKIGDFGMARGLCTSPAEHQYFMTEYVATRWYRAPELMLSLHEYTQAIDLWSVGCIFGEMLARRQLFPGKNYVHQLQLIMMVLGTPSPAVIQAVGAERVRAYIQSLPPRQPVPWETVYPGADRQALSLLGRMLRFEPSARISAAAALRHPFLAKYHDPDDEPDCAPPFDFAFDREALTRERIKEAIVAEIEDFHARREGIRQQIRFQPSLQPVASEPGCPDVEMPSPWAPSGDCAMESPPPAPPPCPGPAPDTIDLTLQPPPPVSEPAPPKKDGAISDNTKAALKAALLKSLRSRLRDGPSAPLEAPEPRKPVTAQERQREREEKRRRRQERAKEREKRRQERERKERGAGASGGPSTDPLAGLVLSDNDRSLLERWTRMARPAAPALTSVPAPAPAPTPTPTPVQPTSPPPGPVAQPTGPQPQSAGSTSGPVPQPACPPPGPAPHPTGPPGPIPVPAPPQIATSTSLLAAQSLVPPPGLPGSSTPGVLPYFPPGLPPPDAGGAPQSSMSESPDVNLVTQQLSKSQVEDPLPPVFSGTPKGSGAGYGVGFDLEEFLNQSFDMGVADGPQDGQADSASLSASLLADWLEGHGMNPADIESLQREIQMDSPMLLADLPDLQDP
T6 sequence (P32298 whole entry): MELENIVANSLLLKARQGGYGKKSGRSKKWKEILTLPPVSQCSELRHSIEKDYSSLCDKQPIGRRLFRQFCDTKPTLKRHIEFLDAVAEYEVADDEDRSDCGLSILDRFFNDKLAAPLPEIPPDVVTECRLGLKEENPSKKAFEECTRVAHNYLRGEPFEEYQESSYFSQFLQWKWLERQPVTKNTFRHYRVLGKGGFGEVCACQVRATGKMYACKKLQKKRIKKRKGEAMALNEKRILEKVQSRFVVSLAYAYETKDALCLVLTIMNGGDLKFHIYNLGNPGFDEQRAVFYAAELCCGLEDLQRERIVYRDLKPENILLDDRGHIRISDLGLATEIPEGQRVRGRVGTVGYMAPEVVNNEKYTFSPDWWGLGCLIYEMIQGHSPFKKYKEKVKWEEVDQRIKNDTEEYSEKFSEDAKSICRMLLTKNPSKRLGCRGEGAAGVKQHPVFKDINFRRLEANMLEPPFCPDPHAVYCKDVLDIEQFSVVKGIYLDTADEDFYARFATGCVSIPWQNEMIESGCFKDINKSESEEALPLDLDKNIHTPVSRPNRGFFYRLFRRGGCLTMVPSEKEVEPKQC

Compound	remaining activity at 5 µM [1] [%]	remaining activity at 5 µM [2] [%]	remaining activity at 5 µM [3] [%]	remaining activity at 5 µM [4] [%]	remaining activity at 5 µM [5] [%]	remaining activity at 5 µM [6] [%]	remaining activity at 5 µM [7] [%]	remaining activity at 10 µM ([1]; 10 uM) [%]	remaining activity at 10 µM ([2]; 10 uM) [%]	remaining activity at 10 µM ([3]; 10 uM) [%]	remaining activity at 10 µM ([4]; 10 uM) [%]	remaining activity at 10 µM ([5]; 10 uM) [%]	remaining activity at 10 µM ([6]; 10 uM) [%]	remaining activity at 10 µM ([7]; 10 uM) [%]
O=C(Nc1cnn(-c2csc(C(=O)NC3COC3)c2)c1)Nc1ccccc1Cl [Compound 17, 4-(4-(3-(2-chlorophenyl)ureido)-1H-pyrazol-1-yl)-N-(oxetan-3-yl)thiophene-2-carboxamide]	34.1	79.4	91.9	119	97.5	97	94.6	–	–	–	–	–	–	–
O=C(Nc1cnn(-c2csc(C(=O)NC3COC3)c2)c1)Nc1c(F)cccc1Cl [Compound 25, 4-(4-(3-(2-chloro-6-fluorophenyl)ureido)-1H-pyrazol-1-yl)-N-(oxetan-3-yl)thiophene-2-carboxamide]	22.7	62.2	92.9	75.9	100	93.6	96.2	–	–	–	–	–	–	–
Cc1sc(C(=O)NC2COC2)cc1-n1cc(NC(=O)Nc2c(F)cccc2Cl)cn1 [Compound 27, 4-(4-(3-(2-chloro-6-fluorophenyl)ureido)-1H-pyrazol-1-yl)-5-methyl-N-(oxetan-3-yl)thiophene-2-carboxamide]	–	–	–	–	–	–	–	51.9	102	113	95.7	118	113	93.7
